Measurements: patent US20230302022A1, “PREVENTING OR MITIGATING CHEMOTHERAPY INDUCED ALOPECIA USING VITAMIN D” (priority 2016, published 2023)

Legend:
[1] = tested on: MIAC51 (chloroleukemia cells); assay: Chloroleukemia (MIAC51) in rats: cure / survival under chemotherapy with topical calcitriol; type: in vivo, rat; conditions: CTX, after Two Rounds of Chemotherapy
Experimental: For experiments in which rats were transplanted with chloroleukemia, on Day 5 after birth, rats were randomly divided into three groups of 45 each. All rats received 1×10^5 chloroleukemic cell line MIAC51 (i.p.) in 0.1 mL of serum free (SF) RPMI. MIAC51 were cultured in RPMI 1640 supplemented with L-glutamine and 10% fetal bovine serum at 37° C. in a 5% CO2, 100% humidity incubator. Cells were grown to 50% confluency (1.5×106 mL) collected in 50 mL conical tubes, centrifuged at 600 g×10 min. at room temperature and resuspended in SF-RPMI at a concentration of 1×10^6/mL. Group 1 rats received no further treatment. Group 2 rats received topical vehicle and CTX on day 13. […] Topical applications were performed as described above.
On day 23 after birth, a sample of blood was taken from all rats and differentials performed. Rats with leukemia were sacrificed, rats without leukemia were kept and a second differential performed on day 31, at any point if leukemia was detected, animals were sacrificed by CO2 asphyxiation.
On day 5 after birth all rats received 1×105 MIAC51 intraperitoneally in 0.1 mL of serum free (SF) RPMI. MIAC51 were cultured in RPMI 1640 supplemented with L-glutamine and 10% fetal bovine serum at […] in a 5% CO2, 100% humidity incubator. Cells were grown to 50% confluency (1.5×106 mL) collected in 50 mL conical tubes, centrifuged at 600 g for 10 minutes at room temperature and resuspended in SF-RPMI at a concentration of 1×10^6/mL prior to injection.
[…]

Long Evans rats = assay: CIA in chloroleukemic Long Evans rats receiving multi-course chemotherapy; type: in vivo, rat; conditions: for ALOPECIA 4+ (number of rats): Cyclophosphamide (CTX)

Compound: O=P1(N(CCCl)CCCl)NCCCO1 (centres unmarked) [CTX, Cyclophosphamide]
- Survival Rate, % [1]: 20%
- Cured (number of rats) ([1]; of 40): 8
- ALOPECIA 4+ (number of rats) (Long Evans rats; after First Round of Chemotherapy): 40
- ALOPECIA 4+ (number of rats) (Long Evans rats; after Second Round of Chemotherapy): 8
- extent of alopecia (grade), all rats (Long Evans rats; cyclophosphamide regimen, after the first round of chemotherapy): +4
